Two compounds from ChEMBL document CHEMBL4350967, “The Trifluoromethyl Group as a Bioisosteric Replacement of the Aliphatic Nitro Group in CB1 Receptor Positive Allosteric Modulators” (J Med Chem, 2019) can be followed below.

Series [1] deals with T1, Cannabinoid receptor 1 (Homo sapiens, UniProt P21554). The series can be described thus: Agonist activity at human CB1 receptor expressed in CHOK1 cells assessed as induction of beta-arrestin recruitment measured after 30 mins by PathHunter assay. The format is cell-based. (In general: Recruitment of arrestin is a read-out of receptor activation apart from second messengers.)
T1 sequence (P21554 whole entry): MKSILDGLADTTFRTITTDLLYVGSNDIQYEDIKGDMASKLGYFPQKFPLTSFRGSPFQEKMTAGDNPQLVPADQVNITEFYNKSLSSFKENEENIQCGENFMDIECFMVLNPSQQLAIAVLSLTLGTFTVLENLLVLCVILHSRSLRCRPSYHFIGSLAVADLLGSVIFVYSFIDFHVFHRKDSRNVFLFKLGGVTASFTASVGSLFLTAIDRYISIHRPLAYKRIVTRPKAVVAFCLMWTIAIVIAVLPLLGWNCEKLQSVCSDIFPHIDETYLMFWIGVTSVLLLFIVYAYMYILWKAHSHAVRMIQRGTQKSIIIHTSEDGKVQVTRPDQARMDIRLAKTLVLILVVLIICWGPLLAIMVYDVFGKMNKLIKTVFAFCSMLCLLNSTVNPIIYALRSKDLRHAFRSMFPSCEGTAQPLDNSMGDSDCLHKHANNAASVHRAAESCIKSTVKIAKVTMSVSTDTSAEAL

For series [2], the target named is T1, Cannabinoid receptor 1. The series can be described thus: Agonist activity at human Gi/Go-coupled CB1 receptor expressed in CHOK1 cells assessed as inhibition of forskolin-stimulated cAMP production measured after 30 mins by Hit-hunter assay relative to CP55940. The format is cell-based. The note with it: 0.5 h, read-out: Emax.
The subject of series [3] is Mus musculus. The series can be described thus: Psychoactive effect in C57BL/6J mouse assessed as change in immobility time at 40 mg/kg, ip measured after 30 mins by catalepsy bar test. The format is ADME, organism-based. The conditions noted are these: in vivo, 0.5 h.
Series [4] can be described thus: Half life in mouse liver microsomes at 3 uM in presence of NADPH by LC-MS/MS analysis. Format: ADME, Microsome. (Microsomes from liver hold many membrane-bound enzymes, among them those of drug oxidation.)
Series [5] relates to Mus musculus. The series can be described thus: Psychoactive effect in C57BL/6J mouse assessed as effect on locomotor activity by measuring change in immobility time at 40 mg/kg, ip measured after 30 mins. Format: ADME, organism-based. The note with it: in vivo, 0.5 h.
The target in series [6] is T1, Cannabinoid receptor 1. The series can be described thus: Positive allosteric modulation of human CB1 receptor expressed in CHOK1 cells assessed as increase in CP55940-induced beta-arrestin recruitment at 500 nM preincubated for 30 mins followed by CP55940 addition and measured after 90 to 180 mins by PathHunter assay relative to CP55940. The format is cell-based.

Series [7] concerns Mus musculus. Description: Psychoactive effect in C57BL/6J mouse assessed as effect on locomotor activity by measuring change in distance travelled at 40 mg/kg, ip measured after 30 mins. Format: ADME, organism-based. The note with it: in vivo, 0.5 h.
For series [8], the target named is Cannabinoid receptor 1 (Mus musculus) (UniProt P47746). Description: Positive allosteric modulation of CB1 receptor in mouse brain membranes assessed as increase in [3H]CP55940 binding at 1 uM measured after 60 mins relative to control. The format is cell membranes.
Chain of Cannabinoid receptor 1 (Mus musculus) (P47746 whole entry): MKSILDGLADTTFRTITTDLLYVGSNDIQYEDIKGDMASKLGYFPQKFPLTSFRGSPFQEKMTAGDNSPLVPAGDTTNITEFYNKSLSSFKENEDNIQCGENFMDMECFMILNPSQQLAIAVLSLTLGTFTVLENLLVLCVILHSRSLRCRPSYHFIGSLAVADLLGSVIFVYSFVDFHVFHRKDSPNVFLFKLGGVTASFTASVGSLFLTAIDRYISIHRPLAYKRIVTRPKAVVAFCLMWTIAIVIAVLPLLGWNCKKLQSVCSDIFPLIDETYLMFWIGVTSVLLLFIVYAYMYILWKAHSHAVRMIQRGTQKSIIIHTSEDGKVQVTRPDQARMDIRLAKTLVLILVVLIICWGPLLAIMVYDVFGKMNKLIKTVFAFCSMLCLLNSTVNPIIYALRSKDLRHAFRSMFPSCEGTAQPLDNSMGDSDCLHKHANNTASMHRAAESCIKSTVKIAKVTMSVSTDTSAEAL
Series [9] can be described thus: Half life in rat liver microsomes at 3 uM in presence of NADPH by LC-MS/MS analysis. Format: ADME, Microsome.
Series [10] addresses T1, Cannabinoid receptor 1. Description: Positive allosteric modulation of human Gi/Go-coupled CB1 receptor expressed in CHOK1 cells assessed as increase in CP55940-induced inhibition of forskolin-stimulated cAMP production preincubated for 30 mins followed by CP55940 addition and measured after 30 to 60 mins by Hit-hunter assay relative to CP55940. Format: functional, cell-based. On the technique in general: Changes in cAMP serve as a functional read-out for many G protein-coupled receptors.

Series [11] concerns the target T1, Cannabinoid receptor 1. Description: Positive allosteric modulation of human CB1 receptor expressed in CHOK1 cells assessed as increase in CP55940-induced beta-arrestin recruitment preincubated for 30 mins followed by CP55940 addition and measured after 90 to 180 mins by PathHunter assay relative to CP55940. Format: cell-based.
Series [12] has as its system Mus musculus. Description: Psychoactive effect in C57BL/6J mouse assessed as antinociceptive effect at 40 mg/kg, ip measured after 30 mins by warm water tail withdrawal assay. The format is ADME, organism-based. The note with it: in vivo, 0.5 h.
Series [13] has as its target T1, Cannabinoid receptor 1. The series can be described thus: Positive allosteric modulation of human CB1 receptor expressed in CHOK1 cells assessed as increase in CP55940-induced beta-arrestin recruitment preincubated for 30 mins followed by CP55940 addition and measured after 90 to 180 mins by PathHunter assay. The format is cell-based.
Series [14] concerns the target T1, Cannabinoid receptor 1. The series can be described thus: Agonist activity at human Gi/Go-coupled CB1 receptor expressed in CHOK1 cells assessed as inhibition of forskolin-stimulated cAMP production measured after 30 mins by Hit-hunter assay.
Series [15] in a line: Half life in human liver microsomes at 3 uM in presence of NADPH by LC-MS/MS analysis. The format is ADME, Microsome.
Series [16] has as its system Mus musculus. Description: Psychoactive effect in C57BL/6J mouse assessed as hypothermia by measuring change in rectal temperature at 40 mg/kg, ip measured after 30 mins. Format: ADME, organism-based. The conditions noted are these: in vivo, 0.5 h.
The target in series [17] is T1, Cannabinoid receptor 1.
Series [18] deals with Mus musculus. Description: Antiallodynic activity in C57BL/6J mouse model of CCI-induced neuropathic pain assessed as reduction in mechanical sensitivity in contralateral paw at 40 mg/kg, ip by Von frey filament test. The conditions noted are these: TDE = time-dependent effect. Format: functional, organism-based.
Series [19] has as its system Mus musculus. Description: Enhancement of CP55940-induced antinociceptive activity in C57BL/6J mouse assessed as increase in tail withdrawal latency at 40 mg/kg, ip pretreated for 15 mins followed by CP55940 addition and measured after 30 mins by warm water tail withdrawal assay. Format: functional, organism-based.
Series [20] deals with Mus musculus. Description: Antiallodynic activity in C57BL/6J mouse model of CCI-induced neuropathic pain assessed as reduction in mechanical sensitivity in ipsilateral paw at 40 mg/kg, ip by Von frey filament test. Format: functional, organism-based. The note with it: TDE = time-dependent effect.

Each structure is given as a SMILES string. Active and inactive are the calls of the source. No cut-off for these calls is given here. Bounds are passed on as bounds.

One may read the EC50 as the concentration needed to bring the measured effect to its halfway point. Broadly, the Emax is the maximal effect, on the per cent scale that the assay sets. In the case of `Cc1ccc2c(C(C[N+](=O)[O-])c3cccs3)c(-c3ccccc3)[nH]c2c1` (racemic), the EC50 in series [1] turned out to be 777 nM; in [13], 283 nM; in series [14], 32 nM; in [17] it was 18 nM. The maximal effect (Emax) is 94% in series [2], 98% in series [10] and 106% in series [11]. In addition, the Activity entry in [3] is “Non-Toxic”; in [5], “Non-Toxic”; in [6] it was above 50%; in [7], “Non-Toxic”; in series [8] it was 127%; in series [12], “Non-Toxic”. The Activity result in series [16] is given as “Non-Toxic”. In addition, the t1/2 in series [4] worked out at 10.4 min; in series [9], 6.4 min; in series [15], 41.2 min.

As to `N#Cc1ccc2c(C(CC(F)(F)F)c3cccs3)c(-c3ccccc3)[nH]c2c1` (racemic), the EC50 turned out to be 647 nM in series [1] and 177 nM in series [13]. In addition, the Activity entry in [18] is “Tde”; in series [3], “Non-Toxic”; in series [5] it was “Non-Toxic”; in series [7], “Non-Toxic”; in series [12], “Non-Toxic”; in series [16] it was “Non-Toxic”. Further, the Activity result in series [20] was “Tde”. In addition, the result in [19] was Active.
